Experiments:
[1] = test system: apomorphine; test: In vivo apomorphine antagonism test
[2] = Catalepsy test (extrapyramidal side effects); type: in vivo; settings: for léger / faible effet cataleptique à partir de: dose from which a slight (léger, faible) cataleptic effect is seen; for catalepsie pour des doses supérieures à: dose above which catalepsy is seen
Excerpt: Voir notamment GRAY W.D., OSTERBERG A.C., RAUH C.E., Arch. Int. Pharmacodyn. 134, 198, 1961 et COSTALL B., OLLEY J.E., Neuropharmacology 10, 297, 1971.
Ce test est représentatif des effets extrapyramidaux présents dans de nombreux neuroleptiques (effet secondaire non souhaitable). Les composés de l'invention provoquent très peu de catalepsie et paraissent donc dénués de cet effet secondaire non souhaitable.

[3] = test system: récepteurs muscariniques; design: species or system rat CFY; settings: 1,5 nM (³H) QNB; rat brain homogenate without cerebellum; 25°C, 60 minutes; non-specific binding with atropine 10⁻⁵M; test concentration not given
[4] = graded + to +++++, 20 mg/kg for the compounds

O=C(CCCN1CCC(O)(c2ccc(Cl)cc2)CC1)c1ccc(F)cc1 [Halopéridol, reference compound]
Test d'antagonisme a l'apomorphine: intensité de l'activité ([1]; halopéridol at 0,63 mg/kg): +++++

CN1CCN(C2=Nc3ccccc3Oc3ncccc32)CC1.O=C(O)/C=C\C(=O)O [Exemple 4, Maléatede 5-(4-méthylpipérazin-1-yl)pyrido(2,3-b)benzo-1,5-oxazépine]
léger / faible effet cataleptique à partir de [2]: ≥ 20 mg/kg

CN1CCN(C2=Nc3cccnc3N(C=O)c3ccccc32)CC1 [Exemple 17, 11-formyl-6-(4-méthylpipérazin-1-yl)-11H-pyrido(2,3-b)benzo-1,4-diazépine]
Inhibition, % (binding de ³H QNB) [3]: 43,38%

CN1CCN(C2=Nc3cccnc3Nc3ccc(Cl)cc32)CC1 [Exemple 10, 8-chloro-6-(4-méthylpipérazin-1-yl)-11H-pyrido(2,3-b)benzo-1,4-diazépine]
Inhibition, % (binding de ³H QNB) [3]: 62,08%

CN1CCN(C2=Nc3cc(Cl)ccc3Oc3ncccc32)CC1.O=C(O)/C=C/C(=O)O [Exemple 5, Fumaratede 8-chloro-5-(4-méthylpipérazin-1-yl)pyrido(2,3-b)benzo-1,5-oxazépine]
Test d'antagonisme a l'apomorphine: intensité de l'activité [1, 4]: +

CN1CCN(C2=Nc3cc(Cl)ccc3Nc3ccccc32)CC1 [Clozapine, reference compound]
léger / faible effet cataleptique à partir de [2]: ≥ 20 mg/kg
Test d'antagonisme a l'apomorphine: intensité de l'activité ([1]; clozapine at 20 mg/g (so in the source)): +

CN1CCN(C2=Nc3cnccc3Sc3ccccc32)CC1 [Exemple 18, 10-(4-méthylpipérazin-1-yl)pyrido(4,3-b)benzo-1,4-thiazépine]
Inhibition, % (binding de ³H QNB) [3]: 57,61%

CN1CCN(C2=Nc3cccnc3Nc3cc(Cl)ccc32)CC1 [Exemple 12, 9-chloro-6-(4-méthylpipérazin-1-yl)-11H-pyrido(2,3-b)benzo-1,4-diazépine]
Test d'antagonisme a l'apomorphine: intensité de l'activité [1, 4]: +

CN1CCN(C2=Nc3cccnc3Nc3ccc(F)cc32)CC1 [Exemple 13, 8-fluoro-6-(4-méthylpipérazin-1-yl)-11H-pyrido(2,3-b)benzo-1,4-diazépine]
Test d'antagonisme a l'apomorphine: intensité de l'activité [1, 4]: +

Cc1ccc2c(c1)C(N1CCN(C)CC1)=Nc1cccnc1N2 [Exemple 11, 6-(4-méthylpipérazin-1-yl)-8-méthyl-11H-pyrido(2,3-b)benzo-1,4-diazépine]
Inhibition, % (binding de ³H QNB) [3]: 67,3%

CN1CCN(C2=Nc3ccccc3Sc3ccc(Cl)cc32)CC1 [Clothiapine, reference compound]
Inhibition, % (binding de ³H QNB) [3]: 38,05%

CN1CCN(C2=Nc3cccnc3Oc3ccccc32)CC1.O=C(O)/C=C/C(=O)O [Exemple 7, Fumaratede 6-(4-méthylpipérazin-1-yl)pyrido(2,3-b)benzo-1,4-oxazépine]
Test d'antagonisme a l'apomorphine: intensité de l'activité [1, 4]: +

CN1CCN(C2=Nc3ccccc3Nc3ccncc32)CC1 [Exemple 1, 11-(4-méthylpipérazin-1-yl)-5H-pyrido(4,3-b)benzo-1,5-diazépine]
Inhibition, % (binding de ³H QNB) [3]: 4,48%
catalepsie pour des doses supérieures à [2]: > 40 mg/kg

CN1CCN(C2=Nc3cccnc3Sc3ccc(Cl)cc32)CC1.O=C(O)/C=C/C(=O)O [Exemple 3, Fumaratede 8-chloro-6-(4-méthylpipérazin-1-yl)pyrido(2,3-b)benzo-1,4-thiazépine]
catalepsie pour des doses supérieures à [2]: > 40 mg/kg

Reference: patent publication EP0607129B1, “METHYLPIPERAZINOAZEPINE DERIVATIVES, THEIR PREPARATION AND USE” ("THERABEL RESEARCH SA/NV", priority 1991, dated 1993)
